Where “and” joins values, the source holds several entries; their conditions need not be identical. Identical values can stand only once.
Experiments:
STZ-diabetic rats = experiment: Comparison of BMOV and ETHYLBMOV, plasma glucose and insulin in STZ-diabetic rats; assay type: in vivo, rat; settings: 0.6 mmol kg^-1, one oral gavage, 24 hour period
Method: Animal studies were conducted in STZ-diabetic rats comparing doses of 0.6 mmol kg^-1 for VO(ma)2 (BMOV) and VO(ema)2 (ETHYLVMOV). FIGS. 8 and 9 respectively show plasma glucose and plasma insulin values recorded over 24 hour periods after one oral gavage of a water solution of either BMOV or ETHYLBMOV, in order to compare their efficacies.

WKY rats = experiment: Blood pressure study with BMOV, Wistar Kyoto rats; assay type: in vivo, rat; settings: WKYO, 0.75 mg/ml in drinking water
Method: (§1) 11 SHR and 12 WKY rats (all male) were procured at 4 weeks of age from Charles River, Canada. The animals were divided into four experimental groups: SHR (untreated n=5), SHRO (BMOV treated n=6), WKY (untreated n=8) and WKYO (BMOV treated n=4). Chronic BMOV treatment was commenced on the SHRO and WKYO groups at 5 weeks of age. The rats were given BMOV (0.75 mg/ml) ad libitum in the drinking water.
(§2) Once at week 5 and then starting at week 8, weekly measurements of blood pressure were done on all groups for the next 3 weeks. Blood samples were also collected via the tail vein during the weeks mentioned above. These were centrifuged and plasma was collected for subsequent glucose and insulin analyses. Chronic blood pressure measurements were done on conscious rats, using the tail cuff method without external preheating. Initial experiments to validate the tail cuff method by comparing the readings obtained with it to those obtained by direct arterial cannulation were conducted.

SHR rats = experiment: Blood pressure reduction by BMOV, spontaneously hypertensive rats; assay type: in vivo, rat; settings: SHRO, 0.75 mg/ml in drinking water
Method: as §1, §2

diabetic rats [1] = experiment: Comparison of BMOV and vanadyl kojate, acute time course of plasma glucose, rats made diabetic with STZ; assay type: in vivo, rat; set-up: plasma glucose level: unit not given here
Method: Using BMOV and Vanadyl Kojate as prepared in Examples 1 and 2 above, the relative efficacy of the two compounds was assessed using rats made diabetic with STZ. Again the animals were divided into responder and non-responder groups. For a 0.063 mmol V/kg ip injection, BMOV gave a 50:50 split between responder and non-responder groups whereas for vanadyl kojate the ratio was 60:40. On oral gavage of 0.55 mmol V/kg the responder:non-responder ratios were 50:50 and 57:43 respectively (n=10). However over a 12 day test period, there was a 100% response in terms of blood glucose reduction for diabetic rats receiving vanadyl kojate orally.

diabetic rats [2] = experiment: BMOV single oral gavage, STZ diabetic rats; assay type: in vivo, rat; settings: 160 μmol/kg
diabetic rats [3] = experiment: Comparative testing, plasma glucose after oral gavage in STZ diabetic rats; assay type: in vivo, male wistar rats; settings: oral gavage 1 mmol/kg
Method: Diabetes was induced in all animals by a single intravenous injection of streptozotocin (STZ) 60 mg/kg in 0.9% NaCl via the tail vein. Three days after STZ injection, blood was collected from the tail by nicking the tail tip and expressing the blood into heparinized capillary tubes. Blood was centrifuged at 20,000 g for 10 minutes to separate the plasma. Glucose analysis was done immediately on the plasma sample using a Boehringer Mannheim kit. […] One week after STZ injection animals were randomly divided into 3 pairs of rats. Each pair of rats received by oral gavage 1 mmol/kg of BMOV or VO(Sal)2 or VO(acac)2, suspended in 3% acacia.

Cc1occc(=O)c1[O-].Cc1occc(=O)c1[O-].[O]=[V+2] [BMOV, Bis(maltolato)oxovanadium(IV)]
plasma glucose, difference BMOV vs ETHYLBMOV (STZ-diabetic rats): statistically insignificant | plasma insulin, difference BMOV vs ETHYLBMOV (STZ-diabetic rats): statistically insignificant | systolic blood pressure, normotensive controls (WKY rats): without having any effect | development of high blood pressure, in words (SHR rats): prevent the development of high blood pressure | decrease in systolic blood pressure (SHR rats; tail cuff): 25-30 mmHg | plasma glucose level (diabetic rats [1]; i.p. 0.063 mmol/kg, nonresponders (DTN), 0 h): 19.42 | plasma glucose level (diabetic rats [1]; i.p. 0.063 mmol/kg, nonresponders (DTN), 1 h): 18.82 | plasma glucose level (diabetic rats [1]; i.p. 0.063 mmol/kg, nonresponders (DTN), 2 h): 18.51 | plasma glucose level (diabetic rats [1]; i.p. 0.063 mmol/kg, nonresponders (DTN), 4 h): 17.94 | plasma glucose level (diabetic rats [1]; i.p. 0.063 mmol/kg, nonresponders (DTN), 6 h): 18.08 | plasma glucose level (diabetic rats [1]; i.p. 0.063 mmol/kg, nonresponders (DTN), 8 h): 17.77 | plasma glucose level (diabetic rats [1]; i.p. 0.063 mmol/kg, nonresponders (DTN), 12 h): 19.07 | plasma glucose level (diabetic rats [1]; i.p. 0.063 mmol/kg, nonresponders (DTN), 24 h): 19.01 | plasma glucose level (diabetic rats [1]; i.p. 0.063 mmol/kg, responders (DTR), 0 h): 17.51 | plasma glucose level (diabetic rats [1]; i.p. 0.063 mmol/kg, responders (DTR), 1 h): 14.77 | plasma glucose level (diabetic rats [1]; i.p. 0.063 mmol/kg, responders (DTR), 2 h): 12.65 | plasma glucose level (diabetic rats [1]; i.p. 0.063 mmol/kg, responders (DTR), 4 h): 10.6 | plasma glucose level (diabetic rats [1]; i.p. 0.063 mmol/kg, responders (DTR), 6 h): 10.28 | plasma glucose level (diabetic rats [1]; i.p. 0.063 mmol/kg, responders (DTR), 8 h): 9.08 | plasma glucose level (diabetic rats [1]; i.p. 0.063 mmol/kg, responders (DTR), 12 h): 9.38 | plasma glucose level (diabetic rats [1]; i.p. 0.063 mmol/kg, responders (DTR), 24 h): 7.15 | plasma glucose level (diabetic rats [1]; oral gavage 0.55 mmol/kg, nonresponders (DTN), 0 h): 19.31 | plasma glucose level (diabetic rats [1]; oral gavage 0.55 mmol/kg, nonresponders (DTN), 1 h): 18.05 | plasma glucose level (diabetic rats [1]; oral gavage 0.55 mmol/kg, nonresponders (DTN), 2 h): 17.57 | plasma glucose level (diabetic rats [1]; oral gavage 0.55 mmol/kg, nonresponders (DTN), 4 h): 16.92 | plasma glucose level (diabetic rats [1]; oral gavage 0.55 mmol/kg, nonresponders (DTN), 6 h): 16.43 | plasma glucose level (diabetic rats [1]; oral gavage 0.55 mmol/kg, nonresponders (DTN), 8 h): 15.02 | plasma glucose level (diabetic rats [1]; oral gavage 0.55 mmol/kg, nonresponders (DTN), 12 h): 17.17 | plasma glucose level (diabetic rats [1]; oral gavage 0.55 mmol/kg, nonresponders (DTN), 24 h): 18.07 | plasma glucose level (diabetic rats [1]; oral gavage 0.55 mmol/kg, responders (DTR), 0 h): 18.09 | plasma glucose level (diabetic rats [1]; oral gavage 0.55 mmol/kg, responders (DTR), 1 h): 14.55 | plasma glucose level (diabetic rats [1]; oral gavage 0.55 mmol/kg, responders (DTR), 2 h): 13.13 | plasma glucose level (diabetic rats [1]; oral gavage 0.55 mmol/kg, responders (DTR), 4 h): 11.68 | plasma glucose level (diabetic rats [1]; oral gavage 0.55 mmol/kg, responders (DTR), 6 h): 9.47 | plasma glucose level (diabetic rats [1]; oral gavage 0.55 mmol/kg, responders (DTR), 8 h): 9.27 | plasma glucose level (diabetic rats [1]; oral gavage 0.55 mmol/kg, responders (DTR), 12 h): 7.01 | plasma glucose level (diabetic rats [1]; oral gavage 0.55 mmol/kg, responders (DTR), 24 h): 6.31 | rats responding with a decrease in blood glucose (diabetic rats [2]): Six out of six | time of peak fall in blood glucose (diabetic rats [2]): 5 h | time for return of blood glucose to diabetic levels (diabetic rats [2]; usually): ≤ 12 h | blood glucose reducing effect vs compounds of Comparative Examples 15 and 16 (diabetic rats [3]): superior | plasma glucose level (diabetic rats [3]; 0 h, individual rats (two per drug)): 23.02 mM and 23.01 mM | plasma glucose level (diabetic rats [3]; 2 h, individual rats): 23.87 mM and 23.15 mM | plasma glucose level (diabetic rats [3]; 4 h, individual rats): 22.27 mM and 23.32 mM | plasma glucose level (diabetic rats [3]; 6 h, individual rats): 21.21 mM and 22.09 mM | plasma glucose level (diabetic rats [3]; 8 h, individual rats): 20.26 mM and 19.45 mM | plasma glucose level (diabetic rats [3]; 12 h, individual rats): 9.97 mM and 8.73 mM | plasma glucose level (diabetic rats [3]; 24 h, individual rats): 0.8 mM and 1.0 mM

— US5888993A, “Vanadium compounds in the treatment of elevated blood sugar levels” (The University of British Columbia, priority 1997, dated 1999)
